According to patent US20250099511A1, “PHARMACEUTICAL COMPOSITION FOR PREVENTING OR TREATING CANCER” (ENTEROBIOME INC., priority 2022, published 2025):
In brackets after ≈: the same amount, converted by molar mass. Like-named read-outs stand apart in the source and are kept apart here.

How the values were obtained:
Type in all cases: cell-based
[1] = tested on: Faecalibacterium prausnitzii EB-FPDK9; test: MIC by broth microdilution (CLSI); settings: for susceptibility category (S/I/R) by MIC breakpoints: strain EB-FPDK9; for MIC: test strain EB-FPDK9
[2] = tested on: Bacteroides thetiotaomicron ATCC 29741; test: MIC by broth microdilution (CLSI), QC strain
[3] = tested on: Faecalibacterium prausnitzii EB-FPYYK1; test: MIC by broth microdilution (CLSI); settings: for susceptibility category (S/I/R) by MIC breakpoints: strain EB-FPYYK1; for MIC: test strain EB-FPYYK1
[4] = tested on: Faecalibacterium prausnitzii A2-165; test: MIC by broth microdilution (CLSI), type strain; settings: for susceptibility category (S/I/R) by MIC breakpoints: strain A2-165; for MIC: test strain A2-165
[5] = tested on: Faecalibacterium prausnitzii EB-FPDK11; test: MIC by broth microdilution (CLSI); settings: for susceptibility category (S/I/R) by MIC breakpoints: strain EB-FPDK11; for MIC: test strain EB-FPDK11
[6] = tested on: Faecalibacterium prausnitzii EB-FPDK3; test: MIC by broth microdilution (CLSI); settings: for susceptibility category (S/I/R) by MIC breakpoints: strain EB-FPDK3; for MIC: test strain EB-FPDK3
[7] = tested on: Faecalibacterium prausnitzii strains of the present invention; test: Antimicrobial susceptibility, summary for all strains; settings: all Faecalibacterium prausnitzii strains of Table 5
[8] = Faecalibacterium prausnitzii, EBFPDK9, read-out: MIC
[9] = Faecalibacterium prausnitzii, EBFPYYK1, read-out: MIC
[10] = Faecalibacterium prausnitzii, A2165, read-out: MIC
[11] = Faecalibacterium prausnitzii, EBFPDK11, read-out: MIC
[12] = Faecalibacterium prausnitzii, EBFPDK3, read-out: MIC

## piperacillin-tazobactam [PTZ]
[1]; PTZ breakpoints
  susceptibility category (S/I/R) by MIC breakpoints: (S) (≤32/4)
[1]
  MIC: 32/4
[2]; QC ATCC 29741
  MIC: 8/4
[3]; PTZ breakpoints
  susceptibility category (S/I/R) by MIC breakpoints: (R) (≥128/4)
[3]
  MIC: >256/4
[4]; PTZ breakpoints
  susceptibility category (S/I/R) by MIC breakpoints: (R) (≥128/4)
[4]
  MIC: >256/4
[5]; PTZ breakpoints
  susceptibility category (S/I/R) by MIC breakpoints: (R) (≥128/4)
[5]
  MIC: >256/4
[6]; PTZ breakpoints
  susceptibility category (S/I/R) by MIC breakpoints: (S) (≤32/4)
[6]
  MIC: 32/4

## C[C@@H](O)[C@H]1C(=O)N2C(C(=O)O)=C(S[C@@H]3CN[C@H](C(=O)N(C)C)C3)[C@H](C)[C@H]12 [MEM, meropenem]
[1]; [8]
  MIC: > 64 µg/mL
[1]; MEM breakpoints
  susceptibility category (S/I/R) by MIC breakpoints: (R) (≥16)
[2]; Bacteroides, ATCC29741
  MIC: 0.5 µg/mL (≈ 1.3 µM)
[3]; [9]
  MIC: > 64 µg/mL
[3]; MEM breakpoints
  susceptibility category (S/I/R) by MIC breakpoints: (R) (≥16)
[4]; [10]
  MIC: > 64 µg/mL
[4]; MEM breakpoints
  susceptibility category (S/I/R) by MIC breakpoints: (R) (≥16)
[5]; [11]
  MIC: > 64 µg/mL
[5]; MEM breakpoints
  susceptibility category (S/I/R) by MIC breakpoints: (R) (≥16)
[6]; [12]
  MIC: > 64 µg/mL
[6]; MEM breakpoints
  susceptibility category (S/I/R) by MIC breakpoints: (R) (≥16)

## CO/N=C(\C(=O)N[C@@H]1C(=O)N2C(C(=O)O)=CCS[C@H]12)c1csc(N)n1 [CTZ, ceftizoxime]
[1]; CTZ breakpoints
  susceptibility category (S/I/R) by MIC breakpoints: (R) (≥128)
[1]; [8]
  MIC: 128 µg/mL (≈ 334 µM)
[2]; Bacteroides, ATCC29741
  MIC: 16 µg/mL (≈ 41.7 µM)
[3]; CTZ breakpoints
  susceptibility category (S/I/R) by MIC breakpoints: (R) (≥128)
[3]; [9]
  MIC: 128 µg/mL (≈ 334 µM)
[4]; CTZ breakpoints
  susceptibility category (S/I/R) by MIC breakpoints: (I) (64)
[4]; [10]
  MIC: 64 µg/mL (≈ 167 µM)
[5]; CTZ breakpoints
  susceptibility category (S/I/R) by MIC breakpoints: (R) (≥128)
[5]; [11]
  MIC: 128 µg/mL (≈ 334 µM)
[6]; CTZ breakpoints
  susceptibility category (S/I/R) by MIC breakpoints: (S) (≤32)
[6]; [12]
  MIC: 16 µg/mL (≈ 41.7 µM)

## O=C(N[C@H](CO)[C@H](O)c1ccc([N+](=O)[O-])cc1)C(Cl)Cl [CHL, chloramphenicol]
[1]; CHL breakpoints
  susceptibility category (S/I/R) by MIC breakpoints: (R) (≥32)
[1]; [8]
  MIC: 32 µg/mL (≈ 99 µM)
[2]; Bacteroides, ATCC29741
  MIC: 8 µg/mL (≈ 24.8 µM)
[3]; CHL breakpoints
  susceptibility category (S/I/R) by MIC breakpoints: (R) (≥32)
[3]; [9]
  MIC: 256 µg/mL (≈ 792 µM)
[4]; CHL breakpoints
  susceptibility category (S/I/R) by MIC breakpoints: (R) (≥32)
[4]; [10]
  MIC: 64 µg/mL (≈ 198 µM)
[5]; CHL breakpoints
  susceptibility category (S/I/R) by MIC breakpoints: (S) (≤8)
[5]; [11]
  MIC: 8 µg/mL (≈ 24.8 µM)
[6]; CHL breakpoints
  susceptibility category (S/I/R) by MIC breakpoints: (S) (≤8)
[6]; [12]
  MIC: 8 µg/mL (≈ 24.8 µM)

## Cc1ncc([N+](=O)[O-])n1CCO [MTZ, metronidazole]
[1]; [8]
  MIC: < 0.25 µg/mL
[1]; MTZ breakpoints
  susceptibility category (S/I/R) by MIC breakpoints: (S) (≤8)
[2]; Bacteroides, ATCC29741
  MIC: 2 µg/mL (≈ 11.7 µM)
[3]; [9]
  MIC: 2 µg/mL (≈ 11.7 µM)
[3]; MTZ breakpoints
  susceptibility category (S/I/R) by MIC breakpoints: (S) (≤8)
[4]; [10]
  MIC: 4 µg/mL (≈ 23.4 µM)
[4]; MTZ breakpoints
  susceptibility category (S/I/R) by MIC breakpoints: (S) (≤8)
[5]; [11]
  MIC: 0.5 µg/mL (≈ 2.92 µM)
[5]; MTZ breakpoints
  susceptibility category (S/I/R) by MIC breakpoints: (S) (≤8)
[7]
  susceptibility or resistance of all the strains to the antibiotic: susceptibility
[6]; [12]
  MIC: 1 µg/mL (≈ 5.84 µM)
[6]; MTZ breakpoints
  susceptibility category (S/I/R) by MIC breakpoints: (S) (≤8)

## CCC[C@@H]1C[C@@H](C(=O)N[C@@H]([C@H]2O[C@H](SC)[C@H](O)[C@@H](O)[C@H]2O)[C@H](C)Cl)N(C)C1 [CLI, clindamycin]
[1]; CLI breakpoints
  susceptibility category (S/I/R) by MIC breakpoints: (S) (≤2)
[1]; [8]
  MIC: ≤ 0.125 µg/mL
[3]; CLI breakpoints
  susceptibility category (S/I/R) by MIC breakpoints: (S) (≤2)
[3]; [9]
  MIC: ≤ 0.125 µg/mL
[4]; CLI breakpoints
  susceptibility category (S/I/R) by MIC breakpoints: (S) (≤2)
[4]; [10]
  MIC: ≤ 0.125 µg/mL
[5]; CLI breakpoints
  susceptibility category (S/I/R) by MIC breakpoints: (S) (≤2)
[5]; [11]
  MIC: ≤ 0.125 µg/mL
[6]; CLI breakpoints
  susceptibility category (S/I/R) by MIC breakpoints: (S) (≤2)
[6]; [12]
  MIC: ≤ 0.125 µg/mL

## COc1c(N2C[C@@H]3CCCN[C@@H]3C2)c(F)cc2c(=O)c(C(=O)O)cn(C3CC3)c12 [MXF, moxifloxacin]
[1]; [8]
  MIC: 32 µg/mL (≈ 79.7 µM)
[1]; MXF breakpoints
  susceptibility category (S/I/R) by MIC breakpoints: (R) (≥8)
[2]; Bacteroides, ATCC29741
  MIC: 8 µg/mL (≈ 19.9 µM)
[3]; [9]
  MIC: > 32 µg/mL
[3]; MXF breakpoints
  susceptibility category (S/I/R) by MIC breakpoints: (R) (≥8)
[4]; [10]
  MIC: 16 µg/mL (≈ 39.9 µM)
[4]; MXF breakpoints
  susceptibility category (S/I/R) by MIC breakpoints: (R) (≥8)
[5]; [11]
  MIC: 32 µg/mL (≈ 79.7 µM)
[5]; MXF breakpoints
  susceptibility category (S/I/R) by MIC breakpoints: (R) (≥8)
[6]; [12]
  MIC: > 32 µg/mL
[6]; MXF breakpoints
  susceptibility category (S/I/R) by MIC breakpoints: (R) (≥8)
